Read-outs that look alike come from different tables or passages of the source.
Experiments:
Test in all cases: Qube automated patch-clamp assay, inhibition of sodium current
Assay type in all cases: cell-based
[1] = biological target: T1, human Nav1.6 channels stably expressed in HEK 293 cells (Homo sapiens, UniProt Q9UQD0); details: holding potential −65 mV; max concentration tested 33750 nM
T1 construct: expressed in transfected cells; host or cells: HEK 293
Procedure: (§1) Qube™ Experimental Procedure:
(§2) Compounds were tested on human Nav1.7 and Nav1.6 channels stably expressed in HEK 293 cells. […] Cells were sealed on a planar substrate using the multihole technology. Cells expressing human Nav1.7 channels were held at −75 mV or −80 mV. Cells expressing human Nav1.6 channels were held at −65 mV. A train of 6 consecutive test pulses to −10 mV, preceded by 8 s prepulses to −115 mV, was applied at a frequency of 0.1 Hz before and after compound addition. Cells in each Qchip well were incubated in compound for 5 minutes before measuring inhibition. Peak currents were measured in control conditions and after compound addition. The following recording solutions were used (mM). External Nav1.6: 150 NaCl, 2 CaCl2), 5 KCl, 1 Mg Cl2, 10 HEPES, 12 Dextrose; external Nav1.7: 40 NaCl, 120 NMDG, 1 KCl, 0.5 MgCl2, 5 HEPES, 2.7 CaCl2); internal: 120 CsF, 30 CsCl, 10 EGTA, 5 HEPES, 5 NaF, 2 MgCl2. Compounds were prepared as 10 mM stock solutions in DMSO. 10 point compound titrations were generated using the Echo acoustic liquid handling instrument and glass coated 384 well plates. The final DMSO concentration in the assay was 0.3%. For all electrophysiology experiments, offline analysis was used to determine percent inhibition as a function of drug concentration. IC50 values were determined by fitting to the Hill equation.
(§3) The various compounds in EXAMPLES 1 through 43 and TABLE 2 exemplified above were assayed for activity and selectivity using the foregoing Qube® technique. The results are reported in TABLE 3 in a format expressing the identification of the compound with reference EXAMPLE followed by the observed potency in nM for NaV1.7, NaV1.6 and NaV1.5. NA signifies not applicable and the max concentration tested is 33750 nM.

[2] = biological target: T2, human Nav1.7 channels stably expressed in HEK 293 cells (Homo sapiens, UniProt Q15858); details: max concentration tested 33750 nM, read-out: NaV1.7 (nM)
T2 construct: expressed in transfected cells; host or cells: HEK 293
Procedure: as §1, §2, §3

NaV1.5 = NaV1.5 (Homo sapiens, UniProt Q14524); details: holding potential −80 mV; max concentration tested 33750 nM
Sequence of NaV1.5 (Q14524 whole entry): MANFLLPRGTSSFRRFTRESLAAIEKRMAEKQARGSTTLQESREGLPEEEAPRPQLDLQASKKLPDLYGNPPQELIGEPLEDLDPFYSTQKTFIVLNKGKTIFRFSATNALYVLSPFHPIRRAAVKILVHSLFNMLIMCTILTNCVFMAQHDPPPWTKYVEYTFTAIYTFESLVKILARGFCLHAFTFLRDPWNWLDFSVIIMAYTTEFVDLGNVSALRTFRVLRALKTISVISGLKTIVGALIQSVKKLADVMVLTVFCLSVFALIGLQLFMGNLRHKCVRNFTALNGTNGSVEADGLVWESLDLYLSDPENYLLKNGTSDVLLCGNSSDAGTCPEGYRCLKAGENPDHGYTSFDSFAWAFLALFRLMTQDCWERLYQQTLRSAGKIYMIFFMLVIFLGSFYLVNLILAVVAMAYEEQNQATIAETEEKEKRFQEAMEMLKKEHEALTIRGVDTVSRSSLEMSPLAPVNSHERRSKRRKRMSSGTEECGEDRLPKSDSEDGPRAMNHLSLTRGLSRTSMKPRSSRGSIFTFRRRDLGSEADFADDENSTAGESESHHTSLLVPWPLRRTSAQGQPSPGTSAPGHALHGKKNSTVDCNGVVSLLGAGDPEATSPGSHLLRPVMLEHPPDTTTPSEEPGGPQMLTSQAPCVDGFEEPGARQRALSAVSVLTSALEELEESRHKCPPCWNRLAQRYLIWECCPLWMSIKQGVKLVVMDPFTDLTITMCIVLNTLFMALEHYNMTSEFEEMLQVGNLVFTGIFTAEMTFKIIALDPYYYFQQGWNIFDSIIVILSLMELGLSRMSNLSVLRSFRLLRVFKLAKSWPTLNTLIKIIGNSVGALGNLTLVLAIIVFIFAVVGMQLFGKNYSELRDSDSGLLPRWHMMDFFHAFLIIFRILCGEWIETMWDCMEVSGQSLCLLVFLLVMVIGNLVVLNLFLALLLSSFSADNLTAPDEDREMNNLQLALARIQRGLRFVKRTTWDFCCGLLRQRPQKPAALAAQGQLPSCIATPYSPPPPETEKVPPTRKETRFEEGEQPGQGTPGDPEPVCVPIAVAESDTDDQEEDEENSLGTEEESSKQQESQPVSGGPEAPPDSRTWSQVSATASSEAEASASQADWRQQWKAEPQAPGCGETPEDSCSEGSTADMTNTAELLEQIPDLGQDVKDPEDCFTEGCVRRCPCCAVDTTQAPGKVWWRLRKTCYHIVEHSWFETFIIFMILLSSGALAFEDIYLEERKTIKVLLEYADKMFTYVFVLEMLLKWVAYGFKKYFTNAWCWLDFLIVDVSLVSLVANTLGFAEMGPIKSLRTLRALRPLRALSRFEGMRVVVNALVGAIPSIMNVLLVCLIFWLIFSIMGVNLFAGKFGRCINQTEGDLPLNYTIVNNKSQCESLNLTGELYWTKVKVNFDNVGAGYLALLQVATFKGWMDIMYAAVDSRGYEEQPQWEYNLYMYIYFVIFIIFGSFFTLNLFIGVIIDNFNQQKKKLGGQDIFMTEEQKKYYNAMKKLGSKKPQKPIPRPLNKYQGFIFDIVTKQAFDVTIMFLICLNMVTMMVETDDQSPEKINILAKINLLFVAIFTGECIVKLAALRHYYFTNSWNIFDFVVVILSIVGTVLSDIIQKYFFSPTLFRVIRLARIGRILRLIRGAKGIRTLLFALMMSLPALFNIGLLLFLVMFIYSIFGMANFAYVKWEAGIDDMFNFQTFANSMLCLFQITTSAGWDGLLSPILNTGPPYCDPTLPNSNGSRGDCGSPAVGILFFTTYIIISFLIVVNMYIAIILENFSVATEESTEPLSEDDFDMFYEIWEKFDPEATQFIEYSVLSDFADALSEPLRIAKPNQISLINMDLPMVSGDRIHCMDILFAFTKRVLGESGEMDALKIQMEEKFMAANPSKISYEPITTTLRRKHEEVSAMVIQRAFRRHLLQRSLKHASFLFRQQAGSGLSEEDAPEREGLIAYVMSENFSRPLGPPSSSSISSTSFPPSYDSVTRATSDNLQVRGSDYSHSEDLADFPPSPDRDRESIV
Procedure: as §2, §3

[3] = holding potential −75 mV, −75 mV
[4] = holding potential −80 mV, −80 mV

T1 sequence (Q9UQD0 whole entry): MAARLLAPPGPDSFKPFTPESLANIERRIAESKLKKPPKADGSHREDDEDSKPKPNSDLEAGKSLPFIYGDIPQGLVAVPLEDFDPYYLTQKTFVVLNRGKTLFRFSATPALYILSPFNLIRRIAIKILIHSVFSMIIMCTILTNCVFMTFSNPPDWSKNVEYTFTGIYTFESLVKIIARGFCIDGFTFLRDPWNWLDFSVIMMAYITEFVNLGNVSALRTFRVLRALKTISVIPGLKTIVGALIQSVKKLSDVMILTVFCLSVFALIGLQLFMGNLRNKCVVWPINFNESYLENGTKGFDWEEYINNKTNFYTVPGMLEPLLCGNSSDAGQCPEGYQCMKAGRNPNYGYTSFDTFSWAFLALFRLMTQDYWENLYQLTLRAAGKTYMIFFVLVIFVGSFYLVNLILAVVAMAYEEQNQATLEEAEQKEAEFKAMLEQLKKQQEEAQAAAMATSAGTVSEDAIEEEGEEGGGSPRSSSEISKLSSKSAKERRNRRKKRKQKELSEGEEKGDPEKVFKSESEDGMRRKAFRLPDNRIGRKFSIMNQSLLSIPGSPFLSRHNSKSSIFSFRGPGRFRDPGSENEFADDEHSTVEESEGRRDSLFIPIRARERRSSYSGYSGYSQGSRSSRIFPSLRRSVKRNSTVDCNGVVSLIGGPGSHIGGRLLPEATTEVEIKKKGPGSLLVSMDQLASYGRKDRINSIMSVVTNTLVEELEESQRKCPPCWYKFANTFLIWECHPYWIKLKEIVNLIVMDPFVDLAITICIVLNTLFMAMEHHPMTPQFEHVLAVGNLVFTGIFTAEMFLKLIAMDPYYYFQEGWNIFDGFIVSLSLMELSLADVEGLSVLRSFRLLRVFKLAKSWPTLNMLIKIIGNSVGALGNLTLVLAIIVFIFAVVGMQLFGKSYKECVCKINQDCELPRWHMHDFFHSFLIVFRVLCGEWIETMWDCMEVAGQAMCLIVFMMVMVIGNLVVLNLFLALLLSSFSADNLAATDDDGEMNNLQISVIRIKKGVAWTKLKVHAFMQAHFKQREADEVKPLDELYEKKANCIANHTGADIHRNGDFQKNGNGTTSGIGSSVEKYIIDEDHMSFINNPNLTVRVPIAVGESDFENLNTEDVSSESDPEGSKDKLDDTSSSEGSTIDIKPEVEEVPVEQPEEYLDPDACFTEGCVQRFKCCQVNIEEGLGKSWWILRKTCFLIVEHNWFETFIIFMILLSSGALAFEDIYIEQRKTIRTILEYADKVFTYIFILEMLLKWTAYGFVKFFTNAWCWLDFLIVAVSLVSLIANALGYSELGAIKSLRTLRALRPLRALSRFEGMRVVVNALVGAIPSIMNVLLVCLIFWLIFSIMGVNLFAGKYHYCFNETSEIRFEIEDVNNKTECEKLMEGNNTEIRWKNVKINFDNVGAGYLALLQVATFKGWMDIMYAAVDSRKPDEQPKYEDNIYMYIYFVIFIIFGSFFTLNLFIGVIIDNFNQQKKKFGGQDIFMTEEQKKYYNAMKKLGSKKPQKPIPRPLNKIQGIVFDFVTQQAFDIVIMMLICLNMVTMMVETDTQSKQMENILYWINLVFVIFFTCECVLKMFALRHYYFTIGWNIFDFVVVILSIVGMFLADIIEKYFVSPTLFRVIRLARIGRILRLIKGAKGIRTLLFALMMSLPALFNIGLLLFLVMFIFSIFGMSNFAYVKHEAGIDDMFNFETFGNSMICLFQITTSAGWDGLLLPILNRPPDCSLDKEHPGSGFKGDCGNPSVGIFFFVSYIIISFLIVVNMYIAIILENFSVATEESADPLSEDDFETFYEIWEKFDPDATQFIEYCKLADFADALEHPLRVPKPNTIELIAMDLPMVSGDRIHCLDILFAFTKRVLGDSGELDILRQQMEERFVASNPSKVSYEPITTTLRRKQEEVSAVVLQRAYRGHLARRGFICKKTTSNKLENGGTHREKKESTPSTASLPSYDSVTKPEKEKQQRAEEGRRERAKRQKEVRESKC

IC50 [1] | IC50 [2, 3] | IC50 [2, 4] | Compound | IC50 (NaV1.5)
13800 nM | 84 nM |  | C[C@@H](N)[C@H](CNc1cc(F)c(S(=O)(=O)Nc2ncns2)cc1Cl)CC(N)C(F)(F)F (single isomer, unassigned) [Example 2] | > 33800 nM
> 33800 nM | 41 nM |  | C[C@@H](N)C(CNc1cc(F)c(S(=O)(=O)Nc2ncns2)cc1Cl)CC(C)(C)CN (single isomer, unassigned) [Example 3] | > 33800 nM
> 33800 nM | 93 nM |  | C[C@@H](N)C(COc1ncc(S(=O)(=O)Nc2ncc(F)s2)cc1Cl)CC1(CCN)CCC1 (single isomer, unassigned) [Example 6] | 
 |  | > 33800 nM | C[C@@H](N)C(CNc1cc(F)c(S(=O)(=O)Nc2ncns2)cc1F)CC1CC(C)(C)CN1 (single isomer, unassigned) [Example 14] | 
> 33800 nM |  | 113 nM | C[C@@H](N)C(CNc1cc(F)c(S(=O)(=O)Nc2ncns2)cc1F)CC1CC(C)(C)CN1 (single isomer, unassigned) [Example 17] | > 33800 nM
> 33800 nM | 31 nM |  | C[C@@H](N)[C@H](CNc1ccc(S(=O)(=O)Nc2ncns2)c(F)c1)CC(CCN)C1CC1 (single isomer, unassigned) [Example 19] | > 33800 nM
 |  | 916 nM | CC[C@@H](N)C(CNc1cc(F)c(S(=O)(=O)Nc2ncns2)c(F)c1F)CC1(CCN)CCC1 (single isomer, unassigned) [Example 21] | 
12100 nM |  | 26 nM | CC[C@@H](N)C(CNc1cc(F)c(S(=O)(=O)Nc2ncns2)c(F)c1F)CC1(CCN)CCC1 (single isomer, unassigned) [Example 22] | > 33800 nM
> 33800 nM | 156 nM |  | C[C@@H](N)[C@H](CNc1cc(F)c(S(=O)(=O)Nc2ncns2)cc1Cl)C[C@@H]1C[C@@H]1CN (single isomer, unassigned) [Example 33] | 
> 33800 nM | 82 nM |  | CC(C)NCC(CNc1cc(F)c(S(=O)(=O)Nc2ncns2)cc1Cl)[C@@H](C)N (single isomer, unassigned) [Example 36] | > 33800 nM
> 33800 nM | 6760 nM |  | CC(C)NCC(CNc1cc(F)c(S(=O)(=O)Nc2ncns2)cc1Cl)[C@@H](C)N (single isomer, unassigned) [Example 37] | 
> 33800 nM |  | 12300 nM | C[C@@H](N)C(CNc1cc(F)c(S(=O)(=O)Nc2ncns2)cc1F)CC1(C)CCC1CN (single isomer, unassigned) [Example 52] | 
> 33800 nM |  | 1060 nM | C[C@@H](N)C(CNc1cc(F)c(S(=O)(=O)Nc2ncns2)cc1F)CC1(C)CCC1CN (single isomer, unassigned) [Example 55] | 
> 33800 nM |  | 12600 nM | C[C@@H](N)C(CNc1cc(F)c(S(=O)(=O)Nc2ncns2)cc1F)CC1CCCCC1CCN (single isomer, unassigned) [Example 66] | 
> 33800 nM |  | > 33800 nM | C[C@@H](N)C(CNc1cc(F)c(S(=O)(=O)Nc2ncns2)cc1F)CC1CCCCC1CCN (single isomer, unassigned) [Example 67] | 
> 33800 nM |  | 328 nM | C[C@@H](N)C(CNc1cc(F)c(S(=O)(=O)Nc2ncns2)cc1F)CC1CNCC1(C)C (single isomer, unassigned) [Example 76] | 
 |  | 1760 nM | COC(CN)C[C@@H](CNc1cc(F)c(S(=O)(=O)Nc2ncns2)cc1Br)[C@@H](C)N (single isomer, unassigned) [Example 82] | 
> 33800 nM | 618 nM |  | C[C@@H](N)C(CNc1cc(F)c(S(=O)(=O)Nc2ncns2)cc1F)C[C@@]1(C)CCC[C@@H]1CN (single isomer, unassigned) [Example 96] | 
> 33800 nM |  | 2360 nM | C[C@@H](N)C(CNc1cc(F)c(S(=O)(=O)Nc2ncns2)cc1F)C[C@]1(C)CCC[C@H]1CN (single isomer, unassigned) [Example 98] | 
> 33800 nM |  | 450 nM | C[C@@H](N)C(CNc1cc(F)c(S(=O)(=O)Nc2ncns2)cc1F)C[C@]1(C)CCC[C@H]1CN (single isomer, unassigned) [Example 99] | 
> 33800 nM | 305 nM |  | C[C@@H](N)C(CNc1cc(F)c(S(=O)(=O)Nc2ncns2)cc1Cl)CC1COCCN1 (single isomer, unassigned) [Example 104] | 
> 33800 nM | 17 nM |  | CC(C)C(N)CC(CNc1cc(F)c(S(=O)(=O)Nc2ncns2)cc1Br)[C@@H](C)N (single isomer, unassigned) [Example 108] | 
8340 nM | 14 nM |  | C[C@@H](N)[C@H](CNc1cc(F)c(S(=O)(=O)Nc2cccc(F)n2)cc1Cl)CC1(N)CCC1 [Example 105] | 

Second part, the compound before the results:

Compound | IC50 [1] | IC50 [2, 3] | IC50 [2, 4] | IC50 (NaV1.5)
C[C@@H](N)[C@H](CNc1cc(F)c(S(=O)(=O)Nc2ncns2)cc1Cl)CC(N)C(F)(F)F (single isomer, unassigned) [Example 1] | 20400 nM | 203 nM |  | 
C[C@@H](N)C(CNc1ncc(S(=O)(=O)Nc2ncc(F)s2)cc1Cl)CC1(CCN)CCC1 (single isomer, unassigned) [Example 8] | > 33800 nM | 18 nM |  | 
C[C@@H](N)[C@H](CNc1ccc(S(=O)(=O)Nc2ncns2)c(F)c1)CC(CCN)C1CC1 (single isomer, unassigned) [Example 20] |  |  | 1390 nM | 
C[C@@H](N)C(CNc1cc(F)c(S(=O)(=O)Nc2ncns2)cc1F)CC1CCCC12CNC2 (single isomer, unassigned) [Example 24] |  |  | > 33800 nM | 
C[C@@H](N)C(CNc1cc(F)c(S(=O)(=O)Nc2ncns2)cc1F)CC1CCCC12CNC2 (single isomer, unassigned) [Example 25] | > 33800 nM |  | 83 nM | > 33800 nM
C[C@@H](N)C(CNc1cc(F)c(S(=O)(=O)Nc2ncns2)cc1F)C(N)C1CCC1 (single isomer, unassigned) [Example 34] | > 33800 nM | 77 nM |  | > 33800 nM
C[C@@H](N)[C@@H](CC(C)(C)CCN)C1CCc2cc(S(=O)(=O)Nc3ncns3)c(F)cc2O1 (single isomer, unassigned) [Example 41] |  |  | 13700 nM | 
C[C@@H](N)C(CNc1cc(F)c(S(=O)(=O)Nc2ncns2)cc1F)CC1CCCC1CN (single isomer, unassigned) [Example 47] | > 33800 nM |  | 3610 nM | 
C[C@@H](N)C(CNc1cc(F)c(S(=O)(=O)Nc2ncns2)cc1Br)CC1(CCN)CC(F)(F)C1 (single isomer, unassigned) [Example 56] |  |  | > 33800 nM | 
C[C@@H](N)C(CNc1cc(F)c(S(=O)(=O)Nc2ncns2)cc1F)CC1CCCCC1CCN (single isomer, unassigned) [Example 64] | > 33800 nM |  | 14600 nM | 
COC(CN)C[C@@H](CNc1cc(F)c(S(=O)(=O)Nc2ncns2)cc1Br)[C@@H](C)N (single isomer, unassigned) [Example 81] | > 33800 nM |  | 87 nM | 
C[C@@H](N)C(CNc1ccc(S(=O)(=O)Nc2ncns2)cc1F)CC1(N)CCC1 (single isomer, unassigned) [Example 89] | > 33800 nM | 274 nM |  | 
C[C@@H](N)C(COc1cc(F)c(S(=O)(=O)Nc2ncns2)cc1F)CC1(CCN)CCC1 (single isomer, unassigned) [Example 95] | > 33800 nM |  | 4130 nM | 
C[C@@H](N)C(CNc1cc(F)c(S(=O)(=O)Nc2ncns2)cc1Cl)CC1COCCN1 (single isomer, unassigned) [Example 101] | > 33800 nM | 84 nM |  | 
C[C@@H](N)[C@H](CNc1ncc(S(=O)(=O)Nc2ncns2)cc1C(F)(F)F)CC(C)(C)CCN [Example 13, 6-(((S)-6-amino-2-((R)-1-aminoethyl)-4,4-dimethylhexyl)amino)-N-(1,2,4-thiadiazol-5-yl)-5-(trifluoromethyl)pyridine-3-sulfonamide] | > 33800 nM | 230 nM |  | 
C[C@@H](N)[C@H](CNc1ncc(S(=O)(=O)Nc2ncns2)cc1C#N)CC(C)(C)CCN [Example 31, 6-(((S)-6-amino-2-((R)-1-aminoethyl)-4,4-dimethylhexyl)amino)-5-cyano-N-(1,2,4-thiadiazol-5-yl)pyridine-3-sulfonamide] | > 33800 nM | 205 nM |  | 
Cc1csc(NS(=O)(=O)c2cc(Cl)c(NC[C@H](CC(C)(C)N)[C@@H](C)N)cc2F)n1 [Example 106] | > 33800 nM | 133 nM |  | 
Cc1cc(S(=O)(=O)Nc2ncc(F)s2)c(F)cc1NC[C@H](CC(C)(C)N)[C@@H](C)N [Example 107] | 3590 nM | 17 nM |  | 
